Data set [1] concerns Calf thymus DNA. The data set is described as follows: Displacement of EtBr from calf thymus DNA incubated for 3 mins by fluorescence based assay. In kind it is tissue-based. The following applies: Bos taurus.
Data set [2] concerns the target T1, Albumin (Homo sapiens, UniProt P02768). The data set is described as follows: Binding affinity to human serum albumin assessed as quenching constant by Stern-Volmer plot analysis. In kind it is ADME, cell-free.
The target of data set [3] is T1, Albumin. The data set can be described thus: Binding affinity to human serum albumin […]. In kind it is ADME, cell-free. In general terms: Isothermal titration calorimetry measures the heat released or taken up as one component is titrated into another.
Data set [4] has as its system Calf thymus DNA. The data set can be described thus: Displacement of EtBr from calf thymus DNA assessed per base pair incubated for 3 mins by fluorescence based assay. In kind it is tissue-based. Particulars: Bos taurus.
For data set [5], the system named is Calf thymus DNA. The data set is described as follows: Binding affinity to calf thymus DNA assessed as change in melting temperature at DNA to ligand ratio at 40:1 by spectrophotometric method. Type of data set: tissue-based. The following applies: Bos taurus.
Data set [6] concerns Calf thymus DNA. The data set can be described thus: Displacement of EtBr from calf thymus DNA at 50 uM incubated for 3 mins by fluorescence based assay relative to control. Type of data set: tissue-based. The following applies: Bos taurus.

T1 sequence (P02768 whole entry): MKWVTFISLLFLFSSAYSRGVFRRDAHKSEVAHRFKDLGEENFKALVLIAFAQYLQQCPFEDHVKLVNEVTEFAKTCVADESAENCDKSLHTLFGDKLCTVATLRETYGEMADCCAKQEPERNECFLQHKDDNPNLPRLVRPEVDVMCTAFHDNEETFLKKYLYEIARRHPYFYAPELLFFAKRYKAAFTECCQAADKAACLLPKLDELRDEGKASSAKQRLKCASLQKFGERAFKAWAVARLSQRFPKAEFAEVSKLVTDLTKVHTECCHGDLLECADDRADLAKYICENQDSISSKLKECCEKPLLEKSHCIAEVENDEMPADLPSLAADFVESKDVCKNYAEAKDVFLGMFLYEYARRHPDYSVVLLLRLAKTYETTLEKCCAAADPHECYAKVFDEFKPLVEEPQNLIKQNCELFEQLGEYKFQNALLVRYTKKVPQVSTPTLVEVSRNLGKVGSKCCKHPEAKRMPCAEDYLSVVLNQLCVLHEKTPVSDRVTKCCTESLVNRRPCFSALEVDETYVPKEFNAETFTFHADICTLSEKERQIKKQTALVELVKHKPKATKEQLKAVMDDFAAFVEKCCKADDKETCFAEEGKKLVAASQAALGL

On to `C/C=C(\C)C(=O)O[C@H](C)C[C@@H]1CCCN1C(=O)CCCCCCCCC`, for which the C50 with Calf thymus DNA [1] was determined as 380 µM. Also, on Albumin [2], the KSV is given as 3 10^4/M. The Kb on Albumin [3] is on record as 5.9 10^4/M.

In general, ΔTm refers to the change in melting temperature against a reference sample. Regarding `Cn1cc(NC(=O)c2cc(NC(=O)CNC(=N)N)cn2C)cc1C(=O)NCCC(=N)N`, the C50 with Calf thymus DNA [1] worked out at 10 µM. Also, the Kapp with Calf thymus DNA [4] is 5.1 10^6/M. The ΔTm in the data set on Calf thymus DNA [5] turned out to be 0.7 °C.

Turning to `C/C=C(\C)C(=O)O[C@H](C)C[C@H]1CCCN1C(=O)CCCCCCCCC`, the Activity in the data set with Calf thymus DNA [6] was determined as 93%. Also, in the data set on Calf thymus DNA [1], the C50 turned out to be 480 µM. Further, the Kapp in the data set on Calf thymus DNA [4] was 1.8 10^5/M. In addition, at Albumin [2], the KSV is 7.2 10^5/M. In addition, on Albumin [3], the Kb is given as 6.4 10^4/M.

On to `OC[C@H]1O[C@H](O)[C@H](O)[C@@H](O)[C@@H]1O`, for which the C50 in the data set on Calf thymus DNA [1] was 390 µM. The ΔTm with Calf thymus DNA [5] is 10.3 °C.

Consider `C/C=C(\C)C(=O)O[C@@H](C)C[C@@H]1CCCN1C(=O)CCCCCCCCC`, for which, in the data set with Calf thymus DNA [1], the C50 came to 470 µM. Further, the KSV at Albumin [2] was 3 10^4/M. Also, at Albumin [3], the Kb is 7.2 10^4/M.

On to `C/C=C(\C)C(=O)O[C@@H](C)C[C@H]1CCCN1C(=O)CCCCCCCCC`, for which, in the data set on Calf thymus DNA [1], the C50 was found to be 340 µM. Moreover, on Albumin [2], the KSV is reported as 1.3 10^5/M. The Kb at Albumin [3] is 16 10^4/M.

Source of the values: ChEMBL document CHEMBL4699560, “Synthesis and Stereochemical Assignment of Conioidine A: DNA- and HSA-Binding Studies of the Four Diastereomers” (J Nat Prod, 2020).
